According to paper PMC4487204, “The Neisseria gonorrhoeae Obg protein is an essential ribosome-associated GTPase and a potential drug target” (BMC Microbiology, 2015):

Columns and labels:
N-His-ObgGC (NGO1990) [1] = target: T1, N-His-ObgGC (NGO1990) (Neisseria gonorrhoeae, UniProt Q5F5D9); experiment: mant fluorescence enhancement, plate reader; format: binding; conditions: 2 uM protein, 50 mM Tris-HCl pH 8.0, 50 mM KCl, 37 C
T1 construct: gene obg

N-His-ObgGC (NGO1990) [2] = target: T1, N-His-ObgGC (NGO1990); experiment: single-turnover hydrolysis, decrease of mant fluorescence; format: biochemical; conditions: 0.3 uM mant-GTP prebound to 16 uM protein, 5 mM MgCl2, pH 8.0, 37 C; first-order rate constant

T1 sequence (Q5F5D9 whole entry): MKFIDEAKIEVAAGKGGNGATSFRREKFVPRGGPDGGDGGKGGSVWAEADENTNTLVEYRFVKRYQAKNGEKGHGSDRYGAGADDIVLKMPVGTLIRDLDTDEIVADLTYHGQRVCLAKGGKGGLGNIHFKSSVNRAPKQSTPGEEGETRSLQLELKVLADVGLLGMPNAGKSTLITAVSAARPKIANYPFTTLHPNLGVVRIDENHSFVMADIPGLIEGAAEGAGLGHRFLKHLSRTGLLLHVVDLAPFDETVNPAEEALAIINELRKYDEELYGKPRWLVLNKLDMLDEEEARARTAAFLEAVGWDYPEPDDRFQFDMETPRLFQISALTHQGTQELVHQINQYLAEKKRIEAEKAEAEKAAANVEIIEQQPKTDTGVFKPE

Row | SMILES | fold enhancement in mant-nucleotide fluorescence (N-His-ObgGC (NGO1990) [1]; 0.3 uM mant-GDP, no Mg2+) | kh (N-His-ObgGC (NGO1990) [2]) | fold enhancement in mant-nucleotide fluorescence (N-His-ObgGC (NGO1990) [1]; 0.3 uM mant-GTP, 5 mM Mg2+)
1 | CNc1ccccc1C(=O)O[C@H]1[C@@H](O)[C@H](n2cnc3c(=O)[nH]c(N)nc32)O[C@@H]1COP(=O)(O)OP(=O)(O)O [mant-GDP] | 1.3 fold |  | 
2 | CNc1ccccc1C(=O)O[C@H]1[C@@H](O)[C@H](n2cnc3c(=O)[nH]c(N)nc32)O[C@@H]1COP(=O)(O)OP(=O)(O)OP(=O)(O)O [mant-GTP] |  | 0.00023 s⁻¹ | 1.9 fold
